ChEMBL document CHEMBL3822423 (J Med Chem, 2016)
≈ marks a conversion by molar mass, not a printed value. Calls of active or inactive are those of the source. No cut-off for these calls is given here.

What was measured:
Type in all cases: functional
Micrococcus luteus = experiment: Antibacterial activity against Micrococcus luteus ATCC 4698 after 18 to 24 hrs; details: NCTC 2665
Staphylococcus aureus [1] = experiment: Antibacterial activity against methicillin-resistant Staphylococcus aureus N315 after 18 to 24 hrs
Staphylococcus aureus [2] = experiment: Antibacterial activity against Staphylococcus aureus ATCC 25923 after 18 to 24 hrs
Bacillus spizizenii = experiment: Antibacterial activity against Bacillus subtilis ATCC 6633 after 18 to 24 hrs
Pseudomonas aeruginosa = experiment: Antibacterial activity against Pseudomonas aeruginosa ATCC 9027 after 18 to 24 hrs
Escherichia coli = experiment: Antibacterial activity against Escherichia coli ATCC 25922 after 18 to 24 hrs
[3] = (§1) Antibacterial activity against Eberthella typhosa ATCC 14028 after 18 to 24 hrs
Bacillus = experiment: Antibacterial activity against Bacillus proteus ATCC 13315 after 18 to 24 hrs
Eberthella typhosa = experiment: as §1

SMILES	MIC (Micrococcus luteus)	MIC (Staphylococcus aureus [1])	MIC (Staphylococcus aureus [2])	MIC (Bacillus spizizenii)	MIC (Pseudomonas aeruginosa)	MIC (Escherichia coli)	MIC [3]	MIC (Bacillus)	MIC (Eberthella typhosa)
CCn1cc(-c2csc(N)n2)c(=O)c2cc(C)ccc21	5.4 µg/mL (≈ 18.9 µM)	129 µg/mL (≈ 451 µM)	2.4 µg/mL (≈ 8.41 µM)	64.4 µg/mL (≈ 226 µM)	2.7 µg/mL (≈ 9.46 µM)	4.7 µg/mL (≈ 16.5 µM)	24.1 µg/mL (≈ 84.5 µM)	0.8 µg/mL (≈ 2.8 µM)	
CCn1cc(-c2csc(N)n2)c(=O)c2cc(N3CCOCC3)c(Cl)cc21	128 µg/mL (≈ 327 µM)	255 µg/mL (≈ 653 µM)	0.8 µg/mL (≈ 2.05 µM)	255 µg/mL (≈ 653 µM)	170 µg/mL (≈ 435 µM)	128 µg/mL (≈ 327 µM)	95.7 µg/mL (≈ 245 µM)	inactive	
CCn1cc(-c2csc(N)n2)c(=O)c2cc(F)c(N3CCCC3)cc21	107 µg/mL (≈ 298 µM)	17.3 µg/mL (≈ 48.3 µM)	32 µg/mL (≈ 89.3 µM)	53.3 µg/mL (≈ 149 µM)	42.7 µg/mL (≈ 119 µM)	9.3 µg/mL (≈ 25.9 µM)	42.7 µg/mL (≈ 119 µM)	128 µg/mL (≈ 357 µM)	
CCn1cc(-c2csc(N)n2)c(=O)c2cccc(F)c21	2.7 µg/mL (≈ 9.33 µM)	inactive	inactive	13.3 µg/mL (≈ 46 µM)	24 µg/mL (≈ 82.9 µM)	9.3 µg/mL (≈ 32.1 µM)		256 µg/mL (≈ 885 µM)	inactive
CCn1cc(-c2csc(N)n2)c(=O)c2cc(OC)ccc21	42.7 µg/mL (≈ 142 µM)	256 µg/mL (≈ 849 µM)	18.8 µg/mL (≈ 62.4 µM)	10.7 µg/mL (≈ 35.5 µM)	21.3 µg/mL (≈ 70.7 µM)	13.3 µg/mL (≈ 44.1 µM)	8 µg/mL (≈ 26.5 µM)	2.7 µg/mL (≈ 8.96 µM)	
CCn1cc(C(C)=O)c(=O)c2cc(F)c(N3CCCCC3)cc21	10.1 µg/mL (≈ 31.9 µM)	17.8 µg/mL (≈ 56.3 µM)	8.9 µg/mL (≈ 28.1 µM)	12.7 µg/mL (≈ 40.1 µM)	22.8 µg/mL (≈ 72.1 µM)	40.6 µg/mL (≈ 128 µM)	121 µg/mL (≈ 383 µM)	20.3 µg/mL (≈ 64.2 µM)	
CCn1cc(C(C)=O)c(=O)c2cc(F)c(N3CCN(C(=O)OC(C)(C)C)CC3)cc21	inactive	64 µg/mL (≈ 153 µM)	16 µg/mL (≈ 38.3 µM)	21.3 µg/mL (≈ 51 µM)	inactive	128 µg/mL (≈ 307 µM)	42.7 µg/mL (≈ 102 µM)	16 µg/mL (≈ 38.3 µM)	
CCn1cc(C(C)=O)c(=O)c2cc(F)c(N3CCCC3)cc21	244 µg/mL (≈ 808 µM)	50.9 µg/mL (≈ 168 µM)	5.1 µg/mL (≈ 16.9 µM)	244 µg/mL (≈ 809 µM)	12.7 µg/mL (≈ 42 µM)	43.3 µg/mL (≈ 143 µM)	122 µg/mL (≈ 404 µM)	33.1 µg/mL (≈ 109 µM)	
CCn1cc(-c2csc(N)n2)c(=O)c2cc(F)c(N3CCNCC3)cc21	64.2 µg/mL (≈ 172 µM)	32.1 µg/mL (≈ 86 µM)	16 µg/mL (≈ 42.8 µM)	10.7 µg/mL (≈ 28.7 µM)	4 µg/mL (≈ 10.7 µM)	16 µg/mL (≈ 42.8 µM)	10.7 µg/mL (≈ 28.7 µM)	2 µg/mL (≈ 5.36 µM)	
CCn1cc(-c2csc(N)n2)c(=O)c2cc(F)ccc21	18.7 µg/mL (≈ 64.6 µM)	inactive	128 µg/mL (≈ 442 µM)	3.3 µg/mL (≈ 11.4 µM)	13.3 µg/mL (≈ 46 µM)	24 µg/mL (≈ 82.9 µM)	21.3 µg/mL (≈ 73.6 µM)	10.7 µg/mL (≈ 37 µM)	
CCn1cc(C(C)=O)c(=O)c2cc(N3CCCC3)c(Cl)cc21	10.7 µg/mL (≈ 33.6 µM)	16 µg/mL (≈ 50.2 µM)	18.7 µg/mL (≈ 58.7 µM)	10.7 µg/mL (≈ 33.6 µM)	9.3 µg/mL (≈ 29.2 µM)	26.7 µg/mL (≈ 83.8 µM)	18.7 µg/mL (≈ 58.7 µM)	64 µg/mL (≈ 201 µM)	
CCn1cc(-c2csc(N)n2)c(=O)c2cc(F)c(N3CCN(C(=O)OC(C)(C)C)CC3)cc21	32 µg/mL (≈ 67.6 µM)	10.7 µg/mL (≈ 22.6 µM)	64 µg/mL (≈ 135 µM)	42.7 µg/mL (≈ 90.2 µM)	8 µg/mL (≈ 16.9 µM)	10.7 µg/mL (≈ 22.6 µM)	5.3 µg/mL (≈ 11.2 µM)	2.6 µg/mL (≈ 5.49 µM)	
CCn1cc(-c2csc(N)n2)c(=O)c2ccc(C(F)(F)F)cc21	inactive	53.2 µg/mL (≈ 157 µM)	128 µg/mL (≈ 377 µM)	63.9 µg/mL (≈ 188 µM)	13.3 µg/mL (≈ 39.2 µM)	5.3 µg/mL (≈ 15.6 µM)	1.7 µg/mL (≈ 5.01 µM)	13.3 µg/mL (≈ 39.2 µM)	
CCn1cc(-c2csc(N)n2)c(=O)c2cc(N3CCCCC3)c(Cl)cc21	49 µg/mL (≈ 126 µM)	24.6 µg/mL (≈ 63.3 µM)	61.2 µg/mL (≈ 157 µM)	19.6 µg/mL (≈ 50.4 µM)	34.4 µg/mL (≈ 88.4 µM)	118 µg/mL (≈ 303 µM)	17.2 µg/mL (≈ 44.2 µM)	34.4 µg/mL (≈ 88.4 µM)	
CCn1cc(-c2csc(N)n2)c(=O)c2cc(N3CCNCC3)c(Cl)cc21	32 µg/mL (≈ 82.1 µM)	inactive	8 µg/mL (≈ 20.5 µM)	2 µg/mL (≈ 5.13 µM)	10.7 µg/mL (≈ 27.4 µM)	128 µg/mL (≈ 328 µM)	8 µg/mL (≈ 20.5 µM)	6.4 µg/mL (≈ 16.4 µM)	
CCn1cc(-c2csc(N)n2)c(=O)c2cc(F)c(N3CCOCC3)cc21	13.3 µg/mL (≈ 35.5 µM)	32 µg/mL (≈ 85.5 µM)	0.8 µg/mL (≈ 2.14 µM)	18.7 µg/mL (≈ 49.9 µM)	10.7 µg/mL (≈ 28.6 µM)	6 µg/mL (≈ 16 µM)	14.7 µg/mL (≈ 39.3 µM)	1.7 µg/mL (≈ 4.54 µM)	
CCn1cc(-c2csc(N)n2)c(=O)c2cc(N3CCN(C(=O)OC(C)(C)C)CC3)c(Cl)cc21	53.2 µg/mL (≈ 109 µM)	32 µg/mL (≈ 65.3 µM)	128 µg/mL (≈ 261 µM)	21.3 µg/mL (≈ 43.5 µM)	8 µg/mL (≈ 16.3 µM)	10.7 µg/mL (≈ 21.8 µM)		32 µg/mL (≈ 65.3 µM)	inactive
CCn1cc(-c2csc(N)n2)c(=O)c2cc(F)c(Cl)cc21	26.6 µg/mL (≈ 82.2 µM)	8 µg/mL (≈ 24.7 µM)	inactive	10.6 µg/mL (≈ 32.7 µM)	1.6 µg/mL (≈ 4.94 µM)	6.7 µg/mL (≈ 20.7 µM)	2.6 µg/mL (≈ 8.03 µM)	3.3 µg/mL (≈ 10.2 µM)	
CCn1cc(C(C)=O)c(=O)c2cc(N3CCCCC3)c(Cl)cc21	37.3 µg/mL (≈ 112 µM)	128 µg/mL (≈ 385 µM)	37.3 µg/mL (≈ 112 µM)	35.4 µg/mL (≈ 106 µM)	42.7 µg/mL (≈ 128 µM)	13.3 µg/mL (≈ 40 µM)		171 µg/mL (≈ 513 µM)	inactive
CCn1cc(-c2csc(N)n2)c(=O)c2cc(F)c(N3CCCCC3)cc21	inactive	53.3 µg/mL (≈ 143 µM)	64 µg/mL (≈ 172 µM)	42.7 µg/mL (≈ 115 µM)	42.7 µg/mL (≈ 115 µM)	128 µg/mL (≈ 344 µM)	74.7 µg/mL (≈ 201 µM)	37.3 µg/mL (≈ 100 µM)	
CCn1cc(-c2csc(N)n2)c(=O)c2cc(Cl)cc(Cl)c21	16 µg/mL (≈ 47 µM)	inactive	3 µg/mL (≈ 8.82 µM)	2.7 µg/mL (≈ 7.94 µM)	2.3 µg/mL (≈ 6.76 µM)	21.2 µg/mL (≈ 62.3 µM)	2.7 µg/mL (≈ 7.94 µM)	3.3 µg/mL (≈ 9.7 µM)	
O=C(N[C@H](CO)[C@H](O)c1ccc([N+](=O)[O-])cc1)C(Cl)Cl [CHLORAMPHENICOL]	13.3 µg/mL (≈ 41.2 µM)	21.3 µg/mL (≈ 65.9 µM)	16 µg/mL (≈ 49.5 µM)	26.6 µg/mL (≈ 82.3 µM)	32 µg/mL (≈ 99 µM)	13.8 µg/mL (≈ 42.7 µM)	26.6 µg/mL (≈ 82.3 µM)	32 µg/mL (≈ 99 µM)	
CCn1cc(C(C)=O)c(=O)c2cc(F)c(N3CCOCC3)cc21	128 µg/mL (≈ 402 µM)	256 µg/mL (≈ 804 µM)	53.3 µg/mL (≈ 167 µM)	inactive	256 µg/mL (≈ 804 µM)	256 µg/mL (≈ 804 µM)	2.3 µg/mL (≈ 7.22 µM)	2.7 µg/mL (≈ 8.48 µM)	
CCn1cc(C(C)=O)c(=O)c2cc(N3CCOCC3)c(Cl)cc21	53.3 µg/mL (≈ 159 µM)	128 µg/mL (≈ 382 µM)	inactive	inactive	42.7 µg/mL (≈ 128 µM)	inactive	37.3 µg/mL (≈ 111 µM)	13.3 µg/mL (≈ 39.7 µM)	
CCn1cc(-c2csc(N)n2)c(=O)c2cc(F)cc(F)c21	256 µg/mL (≈ 833 µM)	inactive	inactive	inactive	inactive	64 µg/mL (≈ 208 µM)		inactive	inactive
